In US20220146526A1, “METHOD FOR EVALUATING SAMPLE, ANALYSIS METHOD, METHOD FOR DETECTING DEGRADED SAMPLE, MARKER FOR DETECTING DEGRADED BLOOD PLASMA SAMPLE, AND MARKER FOR DETECTING DEGRADED SERUM SAMPLE” (SHIMADZU CORPORATION, priority 2019, published 2022):

Tests used:
Format in all cases: physicochemical, human
[1] = LC/MS of blood plasma sample: number of times of freezing and thawing (Table F); conditions: for Rate of increase or decrease: detection intensity relative to 1 at 2 times; for Increase or decrease: detection intensity
Experimental: (§1) At room temperature, 5 mL of blood from a healthy subject was taken into a blood-collecting vessel containing EDTA, and the blood-collecting vessel was inverted for mixing, then cooled, and allowed to stand at 4° C. Here, in order to investigate how the detection intensity of molecules contained in the sample was affected in a case where the time to cooling was set to 5 minutes or more as compared to that in a case where the time to cooling was set to 1 minute or less, preparations were performed under both the former condition and the latter condition. After standing, the blood sample was subjected to centrifugation under a condition of 4° C., 3000 rpm, and 15 minutes. […] After centrifugation, the blood-collecting vessel was left to stand at room temperature for 30 minutes, and the blood plasma was isolated during this 30 minutes. The obtained blood plasma sample was frozen and stored. Here, in order to investigate how the detection intensity of molecules contained in the sample was affected in cases where freezing and thawing was performed 4 times, 6 times, and 10 times after freezing as compared to that in a case where freezing and thawing was performed 2 times after freezing, freezing and thawing was performed under the respective conditions of 2, 4, 6, and 10 times.
(§2) Frozen blood plasma samples and serum samples were subjected to GC/MS or LC/MS. In GC/MS, the blood plasma samples and serum samples were subjected to methoxymation and trimethylsilylation and then introduced to GC-MS.
(§3) Analysis column: Discovery HS F5-3 (inner diameter of 2.1 mm, length of 150 mm, film thickness of 3 μm) (Sigma-Aldrich)
(§4) Column temperature: 40° C.
(§5) (A) 0.1% formic acid (dissolved in water)
(§6) (B) 0.1% formic acid (dissolved in acetonitrile)
(§7) Flow velocity: 0.25 mL/min
(§8) Ionization method: electrospray
(§9) Temperature: • Desolvation Line (DL) temperature: 250° C. • Heat block temperature: 400° C. • Interface temperature: 300° C.
(§10) Gas flow rate: • Nebulizer gas flow rate: 3.0 L/min • Drying gas flow rate: 10.0 L/min • Heating gas flow rate: 10.0 L/min
(§11) Mode: multiple reaction monitoring (MRM)
The rate of increase or decrease in Table F is the value of detection intensity relative to 1 that is the detection intensity in a case where the number of times of freezing and thawing is set to 2 times.

[2] = GC/MS of blood plasma sample: number of times of freezing and thawing (Table C); conditions: for Increase or decrease: detection intensity
Experimental: as §1, §2
(§12) GC/MS was conducted using GCMS·TQ8040 (Shimadzu Corporation) that was a GC·MS equipped with AOC·20i (Shimadzu Corporation) as an autosampler.
(§13) Column: BPX5 (inner diameter of 0.25 mm, length of 30 m, and film thickness of 0.25 μm) (SGE)
(§14) Column temperature: maintained at 60° C. for 2 minutes, then raised at 15° C./min, and maintained at 330° C. for 3 minutes.
(§15) Inlet temperature: 250° C.
(§16) Carrier gas control mode: constant linear velocity of 39.0 cm/sec
(§17) Sample introduction method: split (split ratio of 30:1) Injection volume: 1 μL
(§18) Ionization method: electron ionization
(§19) Ionization current: 60 μA
(§20) Interface temperature: 280° C.
(§21) Ion source temperature: 200° C.
as §11
The rate of increase or decrease in Table C is the value of detection intensity relative to 1 that is the detection intensity in a case where the number of times of freezing and thawing is set to 2 times.

[3] = GC/MS of serum sample: time from blood collection to centrifugation (Table G); conditions: blood collection to centrifugation
Method in brief: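 Blood was held for varying times before centrifugation (room temperature, 3500 rpm, 5 min); serum was frozen, then methoxymated and trimethylsilylated for GC/MS with electron ionization in MRM mode. Values are detection intensities relative to the 15-minute collection-to-centrifugation condition, set as 1.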

[4] = GC/MS of blood plasma sample: time from blood collection to centrifugation (Table A); conditions: blood collection to centrifugation; for Rate of increase or decrease: detection intensity relative to 1 at 15 minutes, after 4 hours; for Increase or decrease: detection intensity, after 4 hours vs 15 minutes
Experimental: as §1, §2, §12, §13, §14, §15, §16, §17, §18, §19, §20, §21, §11
The rate of increase or decrease in Table A is the value of detection intensity relative to 1 that is the detection intensity in a case where the time from blood collection to centrifugation is set to 15 minutes.

[5] = LC/MS of blood plasma sample: time from blood collection to centrifugation (Table D); conditions: blood collection to centrifugation
Experimental: as §1, §2, §3, §4, §5, §6, §7, §8, §9, §10, §11
The rate of increase or decrease in Table D is the value of detection intensity relative to 1 that is the detection intensity in a case where the time from blood collection to centrifugation is set to 15 minutes.

[6] = LC/MS of serum sample: number of times of freezing and thawing (Table M); set-up: key to Rate of increase or decrease: detection intensity relative to 1 at 2 freeze-thaw cycles; conditions: for Rate of increase or decrease: 6 times of freezing and thawing, detection intensity relative to 1 at 2 times; for Number of times when compound is affected / Increase or decrease: serum sample, LC/MS; for Number of times when compound is affected: detection intensity changed by 30% or more vs 2 times of freezing and thawing; for Increase or decrease: detection intensity vs 2 times of freezing and thawing
Experimental: (§22) After standing, the blood sample was subjected to centrifugation under a condition of room temperature, 3500 rpm, and 5 minutes. […] After centrifugation, the blood-collecting vessel was left to stand at room temperature, and the serum was isolated during this time. Here, in order to investigate how the detection intensity of molecules contained in the sample was affected in cases where the time during which the blood-collecting vessel was left at room temperature was set to 1 hour and 6 hours as compared to that in a case where the time was set to 30 minutes, preparations were performed under the respective conditions of 30 minutes, 1 hour, and 6 hours. The obtained serum sample was frozen and stored. Here, in order to investigate how the detection intensity of molecules contained in the sample was affected in cases where freezing and thawing was performed 4 times, 6 times, and 10 times after freezing as compared to that in a case where freezing and thawing was performed 2 times after freezing, freezing and thawing was performed under the respective conditions of 2, 4, 6, and 10 times.
as §2, §3, §4, §5, §6, §7, §8, §9, §10, §11
The rate of increase or decrease in Table M is the value of detection intensity relative to 1 that is the detection intensity in a case where the number of times of freezing and thawing is set to 2 times.

[7] = LC/MS of serum sample: time from blood collection to centrifugation (Table J)
Experimental: as §22, §2, §3, §4, §5, §6, §7, §8, §9, §10, §11
The rate of increase or decrease in Table J is the value of detection intensity relative to 1 that is the detection intensity in a case where the time from blood collection to centrifugation is set to 15 minutes.

[8] = freezing and thawing 10 times vs 2 times
[9] = freezing and thawing 4 times vs 2 times

Row | SMILES | Rate of increase or decrease ([1]; freezing and thawing 10 times) | Increase or decrease [1, 8] | Rate of increase or decrease [4] | Increase or decrease [4] | Rate of increase or decrease [6] | Number of times when compound is affected [6] | Increase or decrease [6] | further results
1 | NC(=O)CC[C@H](N)C(=O)O [Glutamine] | 1.34 | Increase | – | – | – | – | – | –
2 | O=C1O[C@H]([C@@H](O)CO)C(O)=C1O [Ascorbic acid] | – | – | 1.77 | Increase | – | – | – | Rate of increase or decrease ([2]; detection intensity relative to 1 at 2 times, freezing and thawing 4 times): 1.41; Increase or decrease [2, 9]: Increase; Rate of increase or decrease ([3]; detection intensity relative to 1 at 15 minutes, after 4 hours): 0.62; Increase or decrease ([3]; detection intensity, after 4 hours vs 15 minutes): Decrease
3 | N[C@@H](CCSC[C@H](N)C(=O)O)C(=O)O [Cystathionine] | – | – | – | – | – | – | – | Rate of increase or decrease ([1]; freezing and thawing 4 times): 1.52; Increase or decrease [1, 9]: Increase; Rate of increase or decrease ([5]; detection intensity relative to 1 at 15 minutes, after 12 hours): 1.44; Increase or decrease ([5]; detection intensity, after 12 hours vs 15 minutes): Increase
4 | Nc1cc[nH]c(=O)n1 [Cytosine] | – | – | 1.50 | Increase | – | – | – | Increase or decrease ([2]; freezing and thawing 6 times vs 2 times): Different from individual; Rate of increase or decrease (second value, decrease) ([2]; different from individual to individual, individuals with decrease, relative to 1 at 2 times, freezing and thawing 6 times): 0.62; Rate of increase or decrease (first value, increase) ([2]; different from individual to individual, individuals with increase, relative to 1 at 2 times, freezing and thawing 6 times): 1.93
5 | N[C@@H](CO)C(=O)O [Serine, serine] | – | – | – | – | 0.66 | 6 times | Decrease | Rate of increase or decrease ([7]; after 6 hours from blood collection to centrifugation, detection intensity relative to 1 at 15 minutes): 1.44; Increase or decrease ([7]; serum sample, LC/MS, detection intensity vs 15 minutes from blood collection to centrifugation): Increase; Time when compound is affected ([7]; serum sample, LC/MS, time from blood collection to centrifugation, detection intensity changed by 30% or more vs 15 minutes): After 6 hours
6 | N[C@@H](CCS)C(=O)O [Homocysteine] | 1.37 | Increase | – | – | 1.30 | 6 times | Decrease | –
